Source: publication doi:10.1101/2022.01.25.477728v2 (biorxiv, 2022)

molecular target: T1, TcBDF2 / TcBD2 (TcBDF2HA) (Trypanosoma cruzi, UniProt A0A2V2V5V1); test: intrinsic tryptophan fluorescence quenching; format: binding
T1 sequence (A0A2V2V5V1 2-119): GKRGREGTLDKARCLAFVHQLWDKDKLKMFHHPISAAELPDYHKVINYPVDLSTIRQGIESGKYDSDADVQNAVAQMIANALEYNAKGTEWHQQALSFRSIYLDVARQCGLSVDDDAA

Row | Structure (SMILES) | Kd [µM]
1 | COc1cc2c(cc1-c1c(C)noc1C)ncc1[nH]c(=O)n([C@H](C)c3ccccn3)c12 [iBET-151] | ~14
2 | CCOC(=O)Nc1cc(-c2ccc(C)c(NS(C)(=O)=O)c2)nn2c(C)nnc12 [Bromosporine] | ~14
3 | COc1cc(OC)c2c(=O)[nH]c(-c3cc(C)c(OCCO)c(C)c3)nc2c1 [RVX-208] | > 150
